# Tests used:
# Hela cells (ATCC CCL-2) = test: Protein expression of Gaussia luciferase mRNA with various initial caps in transfected Hela cells; assay type: cell-based; conditions: 2 ug mRNA/well, 24 h after transfection, relative to ^m7GpppApG cap, mean±SD; for Relative Luciferase Unit RLU (after purification): HPLC-purified mRNA; for Relative Luciferase Unit RLU (no purification): unpurified mRNA
# Description: In this example, Hela cells (ATCC CCL-2) were transfected with luciferase mRNAs (Gaussia luciferase) comprising various initial cap structures (the initial cap nucleotide structures comprised are: ^m7GpppApG, ^m7GpppA2′Ome pG, ^m7G3′OmepppA2′O-ethylpG, ^m7G2′OmepppA2′O-ethylpG, ^m7G3′OmepppA2′O-MOEpG, ^m7G2′O-mepppA2′O-MOEpG, ^m7Gppp(N6-methyladenine)2′O-MOEpG, ^m7G2′OmepppC2′O-ethylpC, ^m7G3′OmepppA2′O-MOEpU), and the signal intensity of luciferase was detected by microplate reader after 24 h. The fluorescence signal intensity was proportional to the abundance of protein expression. Hela cells were seeded at a density of 4×10^5/well in 6-well plates, and transfection was carried out when the cell density reached approximately 80%. Each well was transfected with 2 ug mRNA, and the transfection reagent was Lipofectamine MessengerMAX Transfection Reagent (Invitrogen), and the transfection steps were carried out according to the instructions. Twenty-four hours after transfection, the signal intensity of luciferase was measured on microplate reader. Measurement of luciferase fluorescence: the transfected cell culture solution was transferred to a 1.5 mL centrifuge tube and centrifuged, 10 ul of cell supernatant was taken and added to a 96-well plate, and 50 ul of 10 ng/ml substrate was added, and then the fluorescence intensity was measured on Synergy HI (BioTek) instrument. The expression of each mRNA was required to be measured 6 times and the expression results were relative values to the results of ^m7GpppApG cap.
# The fluorescence signal intensity was proportional to the abundance of protein expression.
# Hela cells were seeded at a density of 4×10^5/well in 6-well plates, and transfection was carried out when the cell density reached approximately 80%. Each well was transfected with 2 ug mRNA, and the transfection reagent was Lipofectamine MessengerMAX Transfection Reagent (Invitrogen), and the transfection steps were carried out according to the instructions. Twenty-four hours after transfection, the signal intensity of luciferase was measured on microplate reader. Measurement of luciferase fluorescence: the transfected cell culture solution was transferred to a 1.5 mL centrifuge tube and centrifuged, 10 ul of cell supernatant was taken and added to a 96-well plate, and 50 ul of 10 ng/ml substrate was added, and then the fluorescence intensity was measured on Synergy HI (BioTek) instrument. The expression of each mRNA was required to be measured 6 times and the expression results were relative values to the results of ^m7GpppApG cap.
# INFB = test: Immunogenicity: expression of intracellular inflammatory factor INFB by qPCR in Hela cells; assay type: cell-based; conditions: 2 ug mRNA/well, 24 hours after transfection, relative to ^m7GpppApG cap, mean±SD
# Description: In this example, Hela cells (ATCC CCL-2) were transfected with luciferase mRNAs (Gaussia luciferase) comprising various initial cap structures (the initial cap nucleotide structures comprised are: ^m7GpppApG, ^m7GpppA2′Ome pG, ^m7G3′OmepppA2′O-ethylpG, ^m7G2′OmepppA2′O-ethylpG, ^m7G3′OmeppA2′O-MOEpG, ^m7G2′OmepppA2′O-MOEpG, ^m7Gppp(N6-methyladenine)2′O-MOEpG, ^m7G2′OmepppC2′O-ethylpC, ^m7G3′OmepppA2′O-MOEpU), and collected after 24 hours. The expression of intracellular inflammatory factors was detected, and the relative abundance of the factors is in proportional to the immunogenicity of the mRNA.
# (§1) Hela cells were seeded at a density of 4×10^5/well in 6-well plates, and transfection was carried out when the cell density reached approximately 80%. Each well was transfected with 2 ug mRNA, and the transfection reagent was Lipofectamine MessengerMAX Transfection Reagent (Invitrogen), and the transfection steps were carried out according to the instructions. Twenty-four hours after transfection, the cells were collected and TRIzol was used to extract RNAs which were then reverse transcribed into cDNAs. The expression of intracellular inflammatory factors was detected using real-time quantitative fluorescent PCR with B-actin as the internal reference. The detection of each gene was repeated 3 times, and the result of the expression of each gene is expressed as the relative value to the result of ^m7GpppApG cap.
# as §1, with “The expression of intracellular inflammatory factors was detected, and the relative abundant of the factors is in proportional to the immunogenicity of the mRNA. Hela” for “Hela”, “β-actin” for “B-actin”
# [1] = Example 3 (IVT at 50° C.), β-actin reference
substance,measurement,setting,value
^m7G2′OmepppA2′O-MOEpG,Relative Luciferase Unit RLU (after purification),Hela cells (ATCC CCL-2); Example 2,5.11 ± 0.17
same,Relative Luciferase Unit RLU (no purification),Hela cells (ATCC CCL-2); Example 2,4.47 ± 0.07
same,Expression of INFB,"INFB; Example 2, B-actin reference",0.24 ± 0.03
^m7G2′OmepppA2′O-ethylpG,Relative Luciferase Unit RLU (after purification),Hela cells (ATCC CCL-2); Example 2,3.34 ± 0.01
same,Relative Luciferase Unit RLU (no purification),Hela cells (ATCC CCL-2); Example 2,2.83 ± 0.11
same,Expression of INFB,"INFB; Example 2, B-actin reference",0.42 ± 0.02
^m7G2′OmepppC2′O-ethylpC,Relative Luciferase Unit RLU (after purification),Hela cells (ATCC CCL-2); Example 2,1.71 ± 0.18
same,Relative Luciferase Unit RLU (no purification),Hela cells (ATCC CCL-2); Example 2,1.33 ± 0.06
same,Expression of INFB,"INFB; Example 2, B-actin reference",0.78 ± 0.01
^m7G3′OmepppA2′O-MOEpG,Relative Luciferase Unit RLU (after purification),Hela cells (ATCC CCL-2); Example 2,4.18 ± 0.16
same,Relative Luciferase Unit RLU (no purification),Hela cells (ATCC CCL-2); Example 2,3.3 ± 0.13
same,Expression of INFB,"INFB; Example 2, B-actin reference",0.41 ± 0.01
^m7G3′OmepppA2′O-MOEpU,Relative Luciferase Unit RLU (after purification),Hela cells (ATCC CCL-2); Example 2,1.76 ± 0.12
same,Relative Luciferase Unit RLU (no purification),Hela cells (ATCC CCL-2); Example 2,1.32 ± 0.06
same,Expression of INFB,"INFB; Example 2, B-actin reference",1.18 ± 0.08
^m7G3′OmepppA2′O-ethylpG,Relative Luciferase Unit RLU (after purification),Hela cells (ATCC CCL-2); Example 2,2.73 ± 0.03
same,Relative Luciferase Unit RLU (no purification),Hela cells (ATCC CCL-2); Example 2,2.63 ± 0.15
same,Expression of INFB,"INFB; Example 2, B-actin reference",0.47 ± 0.01
^m7GAlpha-L-LNApppA2′O-ethyl pG,Relative Luciferase Unit RLU (after purification),Hela cells (ATCC CCL-2); Example 3 (IVT at 50° C.),2.97 ± 0.09
same,Relative Luciferase Unit RLU (no purification),Hela cells (ATCC CCL-2); Example 3 (IVT at 50° C.),2.67 ± 0.02
same,Expression of INFB,INFB; [1],0.11 ± 0.03
^m7GBeta-D-LNApppA2′O-MOEpG,Relative Luciferase Unit RLU (after purification),Hela cells (ATCC CCL-2); Example 3 (IVT at 50° C.),3.45 ± 0.01
same,Relative Luciferase Unit RLU (no purification),Hela cells (ATCC CCL-2); Example 3 (IVT at 50° C.),3 ± 0.12
same,Expression of INFB,INFB; [1],0.09 ± 0.02
^m7Gppp(N6-methyladenine)2′O-MOEpG,Relative Luciferase Unit RLU (after purification),Hela cells (ATCC CCL-2); Example 2,3.23 ± 0.07
same,Relative Luciferase Unit RLU (no purification),Hela cells (ATCC CCL-2); Example 2,2.98 ± 0.02
same,Expression of INFB,"INFB; Example 2, B-actin reference",0.46 ± 0.02
^m7GpppA2′Ome pG [reference compound],Relative Luciferase Unit RLU (after purification),Hela cells (ATCC CCL-2); Example 2,3.3 ± 0.13
same,Relative Luciferase Unit RLU (no purification),Hela cells (ATCC CCL-2); Example 2,2.94 ± 0.02
same,Relative Luciferase Unit RLU (after purification),Hela cells (ATCC CCL-2); Example 3 (IVT at 50° C.),1.56 ± 0.11
same,Relative Luciferase Unit RLU (no purification),Hela cells (ATCC CCL-2); Example 3 (IVT at 50° C.),1.25 ± 0.11
same,Expression of INFB,"INFB; Example 2, B-actin reference",0.61 ± 0.01
same,Expression of INFB,INFB; [1],0.63 ± 0.04
^m7GpppApG [reference compound],Relative Luciferase Unit RLU (after purification),Hela cells (ATCC CCL-2); Example 2,1 ± 0.19
same,Relative Luciferase Unit RLU (no purification),Hela cells (ATCC CCL-2); Example 2,1 ± 0.02
same,Relative Luciferase Unit RLU (after purification),Hela cells (ATCC CCL-2); Example 3 (IVT at 50° C.),1 ± 0.12
same,Relative Luciferase Unit RLU (no purification),Hela cells (ATCC CCL-2); Example 3 (IVT at 50° C.),1 ± 0.02
same,Expression of INFB,"INFB; Example 2, B-actin reference",1 ± 0.08
same,Expression of INFB,INFB; [1],1 ± 0.13
